Test results reported in ChEMBL document CHEMBL4507272 (2021).

Assays:
[1] = target: Tyrosine-protein kinase ABL1 (Homo sapiens) (UniProt P00519); conditions: Compound concentration 1000.0 nM
[2] = target: ALK tyrosine kinase receptor (Homo sapiens) (UniProt Q9UM73); conditions: Compound concentration 1000.0 nM
[3] = system: ALK tyrosine kinase receptor (Homo sapiens), Q9UM73 [L1196M]; conditions: Compound concentration 1000.0 nM
[4] = target: 5'-AMP-activated protein kinase catalytic subunit alpha-1 (Homo sapiens) (UniProt Q13131); conditions: Compound concentration 1000.0 nM
[5] = target: Mitogen-activated protein kinase kinase kinase 5 (Homo sapiens) (UniProt Q99683); conditions: Compound concentration 1000.0 nM
[6] = target: Cytoplasmic tyrosine-protein kinase BMX (Homo sapiens) (UniProt P51813); conditions: Compound concentration 1000.0 nM
[7] = target: Serine/threonine-protein kinase BRSK2 (Homo sapiens) (UniProt Q8IWQ3); conditions: Compound concentration 1000.0 nM
[8] = target: Calcium/calmodulin-dependent protein kinase type IV (Homo sapiens) (UniProt Q16566); conditions: Compound concentration 1000.0 nM
[9] = target: Cyclin-dependent kinase 2 (Homo sapiens) (UniProt P24941); conditions: Compound concentration 1000.0 nM
[10] = target: Cyclin-dependent kinase 9 (Homo sapiens) (UniProt P50750); conditions: Compound concentration 1000.0 nM
[11] = target: Casein kinase I isoform gamma-3 (Homo sapiens) (UniProt Q9Y6M4); conditions: Compound concentration 1000.0 nM
[12] = system: Epidermal growth factor receptor (Homo sapiens), P00533 [G719S]; conditions: Compound concentration 1000.0 nM
[13] = target: Ephrin type-A receptor 5 (Homo sapiens) (UniProt P54756); conditions: Compound concentration 1000.0 nM
[14] = target: Receptor tyrosine-protein kinase erbB-2 (Homo sapiens) (UniProt P04626); conditions: Compound concentration 1000.0 nM
Sequence of Receptor tyrosine-protein kinase erbB-2 (Homo sapiens) (P04626 whole entry): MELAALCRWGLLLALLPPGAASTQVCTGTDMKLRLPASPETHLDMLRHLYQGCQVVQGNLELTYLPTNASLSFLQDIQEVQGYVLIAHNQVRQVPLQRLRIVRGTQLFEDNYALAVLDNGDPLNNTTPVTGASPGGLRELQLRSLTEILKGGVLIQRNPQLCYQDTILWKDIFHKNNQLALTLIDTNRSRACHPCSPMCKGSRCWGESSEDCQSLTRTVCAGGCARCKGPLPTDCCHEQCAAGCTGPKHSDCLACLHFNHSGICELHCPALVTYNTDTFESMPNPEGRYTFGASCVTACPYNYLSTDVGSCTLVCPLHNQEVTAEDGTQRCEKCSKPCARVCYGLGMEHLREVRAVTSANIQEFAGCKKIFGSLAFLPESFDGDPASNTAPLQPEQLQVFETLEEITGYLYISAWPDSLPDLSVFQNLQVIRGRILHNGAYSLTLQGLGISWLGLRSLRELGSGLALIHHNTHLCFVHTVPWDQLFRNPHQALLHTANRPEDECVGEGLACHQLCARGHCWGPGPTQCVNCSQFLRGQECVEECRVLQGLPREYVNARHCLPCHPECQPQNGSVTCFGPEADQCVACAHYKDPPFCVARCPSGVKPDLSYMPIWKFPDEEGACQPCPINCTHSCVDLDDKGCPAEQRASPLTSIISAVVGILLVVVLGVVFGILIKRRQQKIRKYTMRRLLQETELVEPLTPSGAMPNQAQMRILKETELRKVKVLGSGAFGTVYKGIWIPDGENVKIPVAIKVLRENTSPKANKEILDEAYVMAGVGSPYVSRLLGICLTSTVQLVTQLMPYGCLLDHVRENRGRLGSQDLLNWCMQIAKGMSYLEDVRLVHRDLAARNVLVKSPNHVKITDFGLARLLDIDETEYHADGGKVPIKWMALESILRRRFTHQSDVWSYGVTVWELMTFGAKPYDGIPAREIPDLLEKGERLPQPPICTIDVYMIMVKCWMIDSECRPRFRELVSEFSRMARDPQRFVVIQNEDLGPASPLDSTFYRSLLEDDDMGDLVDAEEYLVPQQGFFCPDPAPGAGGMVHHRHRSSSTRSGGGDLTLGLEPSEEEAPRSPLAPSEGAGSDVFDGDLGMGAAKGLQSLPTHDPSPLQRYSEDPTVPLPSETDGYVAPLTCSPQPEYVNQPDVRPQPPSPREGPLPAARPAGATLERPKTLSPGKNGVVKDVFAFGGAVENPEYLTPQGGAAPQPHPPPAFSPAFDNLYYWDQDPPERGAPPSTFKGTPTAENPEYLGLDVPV

[15] = target: Receptor tyrosine-protein kinase erbB-3 (Homo sapiens) (UniProt P21860); conditions: Compound concentration 1000.0 nM
[16] = target: Fibroblast growth factor receptor 2 (Homo sapiens) (UniProt P21802); conditions: Compound concentration 1000.0 nM
[17] = system: Fibroblast growth factor receptor 3 (Homo sapiens), P22607 [G697C]; conditions: Compound concentration 1000.0 nM
[18] = target: Beta-adrenergic receptor kinase 1 (Homo sapiens) (UniProt P25098); conditions: Compound concentration 1000.0 nM
[19] = target: Tyrosine-protein kinase ITK/TSK (Homo sapiens) (UniProt Q08881); conditions: Compound concentration 1000.0 nM
[20] = system: Mast/stem cell growth factor receptor Kit (Homo sapiens), P10721 [L576P]; conditions: Compound concentration 1000.0 nM
[21] = target: Serine/threonine-protein kinase LATS2 (Homo sapiens) (UniProt Q9NRM7); conditions: Compound concentration 1000.0 nM
Sequence of Serine/threonine-protein kinase LATS2 (Homo sapiens) (Q9NRM7 whole entry): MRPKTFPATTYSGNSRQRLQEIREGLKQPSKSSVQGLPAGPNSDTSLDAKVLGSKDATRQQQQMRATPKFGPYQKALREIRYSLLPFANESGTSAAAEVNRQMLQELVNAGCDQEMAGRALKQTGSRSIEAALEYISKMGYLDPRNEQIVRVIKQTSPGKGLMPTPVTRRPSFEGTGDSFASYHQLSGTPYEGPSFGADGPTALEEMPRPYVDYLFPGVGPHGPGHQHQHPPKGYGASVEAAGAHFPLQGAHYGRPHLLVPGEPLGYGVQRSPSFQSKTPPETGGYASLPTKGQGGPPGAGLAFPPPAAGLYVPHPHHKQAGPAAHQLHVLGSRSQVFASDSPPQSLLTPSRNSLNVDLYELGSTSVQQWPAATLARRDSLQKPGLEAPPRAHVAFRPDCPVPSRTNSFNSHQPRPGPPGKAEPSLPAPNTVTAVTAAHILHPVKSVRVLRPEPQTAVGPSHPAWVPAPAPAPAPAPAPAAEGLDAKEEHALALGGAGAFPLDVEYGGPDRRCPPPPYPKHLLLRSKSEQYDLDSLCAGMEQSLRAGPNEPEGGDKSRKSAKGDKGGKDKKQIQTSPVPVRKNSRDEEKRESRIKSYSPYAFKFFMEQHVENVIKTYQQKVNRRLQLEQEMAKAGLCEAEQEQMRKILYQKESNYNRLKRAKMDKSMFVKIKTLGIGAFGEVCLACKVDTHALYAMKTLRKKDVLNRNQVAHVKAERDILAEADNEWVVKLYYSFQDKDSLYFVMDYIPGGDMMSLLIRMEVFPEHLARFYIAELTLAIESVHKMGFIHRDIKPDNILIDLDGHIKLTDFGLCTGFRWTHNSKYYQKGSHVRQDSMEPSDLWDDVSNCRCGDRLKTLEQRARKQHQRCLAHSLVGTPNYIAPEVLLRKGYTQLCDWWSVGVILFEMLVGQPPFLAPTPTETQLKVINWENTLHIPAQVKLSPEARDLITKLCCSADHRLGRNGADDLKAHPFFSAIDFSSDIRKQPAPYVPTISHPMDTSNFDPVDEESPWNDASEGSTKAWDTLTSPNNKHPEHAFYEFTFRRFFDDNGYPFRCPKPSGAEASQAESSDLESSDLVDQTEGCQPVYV

[22] = system: Leucine-rich repeat serine/threonine-protein kinase 2 (Homo sapiens), Q5S007 [G2019S]; conditions: Compound concentration 1000.0 nM
[23] = target: MAP kinase-activated protein kinase 2 (Homo sapiens) (UniProt P49137); conditions: Compound concentration 1000.0 nM
[24] = target: Dual specificity mitogen-activated protein kinase kinase 2 (Homo sapiens) (UniProt P36507); conditions: Compound concentration 1000.0 nM
[25] = target: Myosin light chain kinase (Homo sapiens) (UniProt Q32MK0); conditions: Compound concentration 1000.0 nM
[26] = target: Muscle, skeletal receptor tyrosine-protein kinase (Homo sapiens) (UniProt O15146); conditions: Compound concentration 1000.0 nM
[27] = target: Mitogen-activated protein kinase kinase kinase 14 (Homo sapiens) (UniProt Q99558); conditions: Compound concentration 1000.0 nM
[28] = target: Mitogen-activated protein kinase 11 (Homo sapiens) (UniProt Q15759); conditions: Compound concentration 1000.0 nM
[29] = target: Serine/threonine-protein kinase PknB (Mycobacterium tuberculosis) (UniProt P9WI81); conditions: Compound concentration 1000.0 nM
[30] = target: Protein kinase C delta type (Homo sapiens) (UniProt Q05655); conditions: Compound concentration 1000.0 nM
[31] = target: cAMP-dependent protein kinase catalytic subunit PRKX (Homo sapiens) (UniProt P51817); conditions: Compound concentration 1000.0 nM
[32] = target: Serine/threonine-protein kinase SIK3 (Homo sapiens) (UniProt Q9Y2K2); conditions: Compound concentration 1000.0 nM
Sequence of Serine/threonine-protein kinase SIK3 (Homo sapiens) (Q9Y2K2 whole entry, looked up): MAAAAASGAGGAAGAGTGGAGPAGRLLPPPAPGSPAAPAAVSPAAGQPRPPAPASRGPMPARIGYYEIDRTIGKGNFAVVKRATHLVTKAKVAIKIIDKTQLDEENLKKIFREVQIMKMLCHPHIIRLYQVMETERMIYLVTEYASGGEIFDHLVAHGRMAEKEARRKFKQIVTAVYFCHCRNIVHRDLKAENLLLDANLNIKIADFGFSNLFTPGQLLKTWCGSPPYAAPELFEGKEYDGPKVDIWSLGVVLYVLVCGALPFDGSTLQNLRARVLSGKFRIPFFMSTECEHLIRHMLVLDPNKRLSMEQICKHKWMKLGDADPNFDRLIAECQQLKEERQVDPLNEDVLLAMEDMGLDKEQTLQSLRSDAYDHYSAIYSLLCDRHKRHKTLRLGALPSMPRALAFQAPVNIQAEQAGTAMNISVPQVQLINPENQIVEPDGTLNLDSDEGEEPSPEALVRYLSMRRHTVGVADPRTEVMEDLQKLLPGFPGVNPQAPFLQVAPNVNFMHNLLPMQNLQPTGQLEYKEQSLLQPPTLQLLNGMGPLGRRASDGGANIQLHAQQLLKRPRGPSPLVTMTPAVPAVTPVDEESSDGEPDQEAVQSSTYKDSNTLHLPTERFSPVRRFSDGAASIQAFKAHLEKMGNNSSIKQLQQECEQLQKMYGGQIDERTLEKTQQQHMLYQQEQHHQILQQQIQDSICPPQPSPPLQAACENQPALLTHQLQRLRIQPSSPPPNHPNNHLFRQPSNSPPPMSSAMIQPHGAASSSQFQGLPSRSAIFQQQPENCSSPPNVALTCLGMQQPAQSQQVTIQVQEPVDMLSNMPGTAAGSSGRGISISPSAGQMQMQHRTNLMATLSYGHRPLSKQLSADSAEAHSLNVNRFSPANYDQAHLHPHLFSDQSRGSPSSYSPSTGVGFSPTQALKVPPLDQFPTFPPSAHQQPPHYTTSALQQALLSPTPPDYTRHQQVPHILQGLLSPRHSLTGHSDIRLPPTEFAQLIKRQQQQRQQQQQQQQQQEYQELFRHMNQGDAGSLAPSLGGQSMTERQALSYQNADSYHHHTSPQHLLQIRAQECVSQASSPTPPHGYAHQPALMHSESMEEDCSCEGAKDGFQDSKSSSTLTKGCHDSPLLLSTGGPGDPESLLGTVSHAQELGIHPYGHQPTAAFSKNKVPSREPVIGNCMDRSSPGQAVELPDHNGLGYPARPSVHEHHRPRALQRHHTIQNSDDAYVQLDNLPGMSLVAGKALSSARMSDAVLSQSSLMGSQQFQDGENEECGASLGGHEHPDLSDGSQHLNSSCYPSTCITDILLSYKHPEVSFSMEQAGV

[33] = target: Rho-associated protein kinase 1 (Homo sapiens) (UniProt Q13464); conditions: Compound concentration 1000.0 nM
[34] = target: Rho-associated protein kinase 2 (Homo sapiens) (UniProt O75116); conditions: Compound concentration 1000.0 nM
Sequence of Rho-associated protein kinase 2 (Homo sapiens) (O75116 whole entry, looked up): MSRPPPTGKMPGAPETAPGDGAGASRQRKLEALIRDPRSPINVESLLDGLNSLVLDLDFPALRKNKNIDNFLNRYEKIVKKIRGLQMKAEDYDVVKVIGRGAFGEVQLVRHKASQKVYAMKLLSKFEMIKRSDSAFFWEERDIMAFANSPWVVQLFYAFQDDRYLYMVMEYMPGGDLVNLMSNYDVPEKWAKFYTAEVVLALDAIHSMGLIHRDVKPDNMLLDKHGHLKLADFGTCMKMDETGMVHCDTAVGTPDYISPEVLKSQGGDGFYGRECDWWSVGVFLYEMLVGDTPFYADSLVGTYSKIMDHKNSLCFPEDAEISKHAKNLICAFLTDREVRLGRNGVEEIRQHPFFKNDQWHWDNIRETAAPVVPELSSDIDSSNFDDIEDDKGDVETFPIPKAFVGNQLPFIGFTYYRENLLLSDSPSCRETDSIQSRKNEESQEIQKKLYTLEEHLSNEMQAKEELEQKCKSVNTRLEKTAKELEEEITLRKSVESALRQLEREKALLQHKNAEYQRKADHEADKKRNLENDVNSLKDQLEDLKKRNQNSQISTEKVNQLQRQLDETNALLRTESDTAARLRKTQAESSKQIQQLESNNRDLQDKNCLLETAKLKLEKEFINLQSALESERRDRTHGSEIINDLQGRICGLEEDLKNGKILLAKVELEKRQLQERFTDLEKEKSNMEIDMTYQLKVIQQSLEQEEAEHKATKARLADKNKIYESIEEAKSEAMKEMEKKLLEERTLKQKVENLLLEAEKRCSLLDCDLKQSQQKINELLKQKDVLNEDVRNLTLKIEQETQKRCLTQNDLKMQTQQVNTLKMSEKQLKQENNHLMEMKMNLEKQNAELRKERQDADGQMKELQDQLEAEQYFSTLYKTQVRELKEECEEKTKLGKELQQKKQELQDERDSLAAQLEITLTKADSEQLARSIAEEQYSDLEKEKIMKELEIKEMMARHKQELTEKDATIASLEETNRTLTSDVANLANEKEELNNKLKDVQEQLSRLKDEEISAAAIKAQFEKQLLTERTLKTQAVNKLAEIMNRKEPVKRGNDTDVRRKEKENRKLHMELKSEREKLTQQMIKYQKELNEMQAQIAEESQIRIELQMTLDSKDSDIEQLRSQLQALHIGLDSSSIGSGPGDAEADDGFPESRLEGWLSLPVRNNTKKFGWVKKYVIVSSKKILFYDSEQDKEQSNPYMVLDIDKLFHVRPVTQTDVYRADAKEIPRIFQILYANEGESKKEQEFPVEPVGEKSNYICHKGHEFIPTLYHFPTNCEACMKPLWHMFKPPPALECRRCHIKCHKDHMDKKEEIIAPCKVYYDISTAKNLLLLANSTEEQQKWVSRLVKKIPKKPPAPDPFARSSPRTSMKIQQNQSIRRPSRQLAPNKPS

[35] = target: Proto-oncogene tyrosine-protein kinase ROS (Homo sapiens) (UniProt P08922); conditions: Compound concentration 1000.0 nM
[36] = target: Ribosomal protein S6 kinase alpha-3 (Homo sapiens) (UniProt P51812); conditions: Compound concentration 1000.0 nM
[37] = target: Ribosomal protein S6 kinase beta-1 (Homo sapiens) (UniProt P23443); conditions: Compound concentration 1000.0 nM
[38] = target: NUAK family SNF1-like kinase 2 (Homo sapiens) (UniProt Q9H093); conditions: Compound concentration 1000.0 nM
[39] = target: Serine/threonine-protein kinase TBK1 (Homo sapiens) (UniProt Q9UHD2); conditions: Compound concentration 1000.0 nM
[40] = target: Tyrosine-protein kinase Tec (Homo sapiens) (UniProt P42680); conditions: Compound concentration 1000.0 nM
[41] = target: TGF-beta receptor type-1 (Homo sapiens) (UniProt P36897); conditions: Compound concentration 1000.0 nM
[42] = target: NT-3 growth factor receptor (Homo sapiens) (UniProt Q16288); conditions: Compound concentration 1000.0 nM
[43] = target: Serine/threonine-protein kinase WNK1 (Homo sapiens) (UniProt Q9H4A3); conditions: Compound concentration 1000.0 nM
[44] = target: Serine/threonine-protein kinase WNK3 (Homo sapiens) (UniProt Q9BYP7); conditions: Compound concentration 1000.0 nM
[45] = organism: Rattus norvegicus; conditions: Compound concentration 10.0 uM
[46] = target: Alpha-1D adrenergic receptor (Homo sapiens) (UniProt P25100); conditions: Compound concentration 10.0 uM

CC(=O)C1=C(C)N(c2cccc(C(F)(F)F)c2)C(=O)N[C@@H]1c1ccc(C#N)nc1 [BAY-678]
inactive: residual activity [1] 96.5% | residual activity [2] 100% | residual activity [3] 94.1% | residual activity [4] 85.4% | residual activity [5] 94.8% | residual activity [6] 97.4% | residual activity [7] 100% | residual activity [8] 54.3% | residual activity [9] 100% | residual activity [10] 100% | residual activity [11] 100% | residual activity [12] 100% | residual activity [13] 98.2% | residual activity [14] 95.6% | residual activity [15] 100% | residual activity [16] 100% | residual activity [17] 100% | residual activity [18] 89% | residual activity [19] 90.4% | residual activity [20] 100% | residual activity [21] 100% | residual activity [22] 100% | residual activity [23] 82.6% | residual activity [24] 84.2% | residual activity [25] 100% | residual activity [26] 100% | residual activity [27] 100% | residual activity [28] 100% | residual activity [29] 82.7% | residual activity [30] 100% | residual activity [31] 100% | residual activity [32] 100% | residual activity [33] 100% | residual activity [34] 86.1% | residual activity [35] 100% | residual activity [36] 99.2% | residual activity [37] 93.8% | residual activity [38] 100% | residual activity [39] 89.5% | residual activity [40] 100% | residual activity [41] 99.2% | residual activity [42] 100% | residual activity [43] 89% | residual activity [44] 100% | inhibition [45] 20% | inhibition [46] 3.11%
